Measurements as given in the NIST ThermoML archive (doi:10.1016/j.jct.2017.08.025).
Several values for one entry are separate records, joined by “and”; a condition that tells them apart may be missing. Identical values can stand only once.

Experiment: mn = molality of the nth substance listed, in mol/kg
Conditions: 100 kPa, Liquid; for speed of sound: Frequency=3 MHz, Single path-length method; for mass density: Vibrating tube method

CCCCn1cc[n+](C)c1.F[B-](F)(F)F [1-butyl-3-methylimidazolium tetrafluoroborate] + O
Conditions | mass density, 288.15 K [kg/m3] | mass density, 293.15 K | mass density, 298.15 K | mass density, 303.15 K | mass density, 308.15 K | speed of sound, 288.15 K [m/s] | speed of sound, 293.15 K [m/s] | speed of sound, 298.15 K [m/s] | speed of sound, 303.15 K [m/s] | speed of sound, 308.15 K [m/s]
m1 = 0.005 | 999.42 | 998.517 kg/m3 | 997.393 kg/m3 | 995.982 kg/m3 | 994.365 kg/m3 | 1464.7 | 1482.6 | 1497.5 | 1512.3 | 1519.6
m1 = 0.01 | 999.705 | 998.831 kg/m3 | 997.7 kg/m3 and 997.702 kg/m3 | 996.31 kg/m3 and 996.311 kg/m3 | 994.694 kg/m3 | 1465.1 | 1483.1 | 1497.9 | 1512.8 | 1520.6
m1 = 0.03 | 1000.86 | 999.967 kg/m3 and 999.97 kg/m3 | 998.803 kg/m3 | 997.512 kg/m3 and 997.51 kg/m3 | 995.895 kg/m3 | 1467 | 1484.9 | 1499.8 | 1514.6 | 1522.4
m1 = 0.05 | 1002 | 1001 kg/m3 | 999.906 kg/m3 and 999.91 kg/m3 | 998.675 kg/m3 and 998.68 kg/m3 | 996.998 kg/m3 and 997 kg/m3 | 1468.8 | 1486.7 | 1501.6 | 1516.4 | 1524.2
